Holding throughout (format): in vivo
The subject of assay [1] is Ivyleaf morningglory. Kind of assay: Herbicidal effect in pots sown with ethaboxam-treated soybean seeds, PPO inhibitor sprayed on soil (Example 1). The note with it: soybean pot, day 7 after sowing, scale 0 to 100. Here is the method:
In a plastic cup of 100 mm in inside diameter and 40 mm in height, 10.5 mg of an ethaboxam suspension (a suspension containing 34.6% of ethaboxam, manufactured by Valent USA Corp.) and 40 soybean seeds were placed. The plastic cup was shaken by the hand so that the ethaboxam suspension was attached to the soybean seeds. The weight of 40 soybean seeds was 12.1 g, and the amount of ethaboxam by the above treatment was calculated as 30 g per 100 kg of the soybean seeds. In the same manner, 104.9 mg of the ethaboxam suspension was attached to 40 soybean seeds. The weight of 40 soybean seeds was 12.1 g, and the amount of ethaboxam by the above treatment was calculated as 300 g per 100 kg of the soybean seeds. A soil was packed in a plastic pot of 120 mm in inside diameter×80 mm in height. The above treated soybean seeds were sown in this pot at a rate of two seeds per pot, and the seeds of ivyleaf morningglory were sown at a rate of four seeds per pot. On the day of sowing the soybean seeds and after sowing the soybean seeds, an aqueous diluted solution (113 mg of active ingredient/L or 225 mg of active ingredient/L) of a flumioxazin granular wettable powder (a granular wettable powder containing 51% of flumioxazin, trade name: Valor SX, manufactured by Valent USA), an aqueous diluted solution (226 mg of active ingredient/L or 1130 mg of active ingredient/L) of a sulfentrazone granular wettable powder (a granular wettable powder containing 75% of sulfentrazone, trade name: Cover, manufactured by DuPont), or an aqueous diluted solution (113 mg/L or 226 mg/L) of saflufenacil was uniformly sprayed on the soil surface with a sprayer so as to apply the amount described in Tables 1 to 3. […] On day 7 after sowing the seeds of soybean and ivyleaf morningglory, the herbicidal effect was investigated.

In assay [2] the test system is Ivyleaf morningglory. The assay can be described thus: Herbicidal effect in pots sown with ethaboxam-treated cotton seeds, PPO inhibitor sprayed on soil (Example 3). The settings on record: cotton pot, day 7 after sowing, scale 0 to 100. Here is the method:
In a plastic cup of 100 mm in inside diameter and 40 mm in height, 5.7 mg of an ethaboxam suspension (a suspension containing 34.6% of ethaboxam, manufactured by Valent USA Corp.) and 40 cotton seeds were placed. The plastic cup was shaken by the hand so that the ethaboxam suspension was attached to the cotton seeds. The weight of 40 cotton seeds was 6.6 g, and the amount of ethaboxam by the above treatment was calculated as 30 g per 100 kg of the cotton seeds. In the same manner, 56.7 mg of the ethaboxam suspension was attached to 40 cotton seeds. The weight of 40 cotton seeds was 6.55 g, and the amount of ethaboxam by the above treatment was calculated as 300 g per 100 kg of the cotton seeds. A soil was packed in a plastic pot of 120 mm in inside diameter×80 mm in height. The above cotton seeds were sown in this pot at a rate of two seeds per pot, and the seeds of ivyleaf morningglory were sown at a rate of four seeds per pot. On the day of sowing the cottonseeds and after sowing the cotton seeds, an aqueous diluted solution (113 mg of active ingredient/L or 225 mg of active ingredient/L) of a flumioxazin granular wettable powder (a granular wettable powder containing 51% of flumioxazin, trade name: Valor SX, manufactured by Valent USA), an aqueous diluted solution (226 mg of active ingredient/L or 1130 mg of active ingredient/L) of a sulfentrazone granular wettable powder (a granular wettable powder containing 75% of sulfentrazone, trade name: Cover, manufactured by DuPont), or an aqueous diluted solution (113 mg/L or 226 mg/L) of saflufenacil was uniformly sprayed on the soil surface with a sprayer so as to apply the amount described in Tables 7 to 9. […] On day 7 after sowing the seeds of cotton and ivyleaf morningglory, the herbicidal effect was investigated.

Assay [3] concerns Ivyleaf morningglory. Kind of assay: Herbicidal effect in pots sown with ethaboxam-treated corn seeds, PPO inhibitor sprayed on soil (Example 2). The note with it: corn pot, day 7 after sowing, scale 0 to 100. The protocol: In a plastic cup of 100 mm in inside diameter and 40 mm in height, 13.4 mg of an ethaboxam suspension (a suspension containing 34. 6% of ethaboxam, manufactured by Valent USA Corp.) and 40 corn seeds were placed. The plastic cup was shaken by the hand so that the ethaboxam suspension was attached to the corn seeds. The weight of 40 corn seeds was 15.5 g, and the amount of ethaboxam by the above treatment was calculated as 30 g per 100 kg of the corn seeds. In the same manner, 138.7 mg of the ethaboxam suspension was attached to 40 corn seeds. The weight of 40 corn seeds was 16.0 g, and the amount of ethaboxam by the above treatment was calculated as 300 g per 100 kg of the corn seeds. A soil was packed in a plastic pot of 120 mm in inside diameter×80 mm in height. The above treated corn seeds were sown in this pot at a rate of two seeds per pot, and the seeds of ivyleaf morningglory were sown at a rate of four seeds per pot. On the day of sowing the corn seeds and after sowing the corn seeds, an aqueous diluted solution (113 mg of active ingredient/L or 225 mg of active ingredient/L) of a flumioxazin granular wettable powder (a granular wettable powder containing 51% of flumioxazin, trade name: Valor SX, manufactured by Valent USA), an aqueous diluted solution (226 mg of active ingredient/L or 1130 mg of active ingredient/L) of a sulfentrazone granular wettable powder (a granular wettable powder containing 75% of sulfentrazone, trade name: Cover, manufactured by DuPont), or an aqueous diluted solution (113 mg/L or 226 mg/L) of saflufenacil was uniformly sprayed on the soil surface with a sprayer so as to apply the amount described in Tables 4 to 6. […] On day 7 after sowing the seeds of corn and ivyleaf morningglory, the herbicidal effect was investigated.

Setting [4] is: no ethaboxam, saflufenacil 100 g/ha.
Setting [5] is: ethaboxam 30 g/100 kg of seeds, no PPO inhibitor.
The mark [6] stands for this setting: ethaboxam 300 g/100 kg of seeds, no PPO inhibitor.
Where [7] appears, read: no ethaboxam, sulfentrazone 500 g/ha.
[8] abbreviates: no ethaboxam, flumioxazin 100 g/ha.

Regarding `CC(C)N(C)S(=O)(=O)NC(=O)c1cc(-n2c(=O)cc(C(F)(F)F)n(C)c2=O)c(F)cc1Cl` [saflufenacil], the “Herbicidal effect Ivyleaf morningglory” value in assay [1] (setting [4]) stood at 50; in assay [2] (no ethaboxam, saflufenacil 50 g/ha), 20; in assay [2] (setting [4]) it was 70.

For the compound `CCNc1nc(CC)c(C(=O)NC(C#N)c2cccs2)s1` (centres unmarked) [ethaboxam], the “Herbicidal effect Ivyleaf morningglory” value in assay [3] (setting [5]), in assay [3] (setting [6]), in assay [1] (setting [5]), in assay [1] (setting [6]), in assay [2] (setting [5]) and in assay [2] (setting [6]) was 0 in each case.

In the case of `Cc1nn(-c2cc(NS(C)(=O)=O)c(Cl)cc2Cl)c(=O)n1C(F)F` [sulfentrazone], the “Herbicidal effect Ivyleaf morningglory” value is 30 in assay [3] (no ethaboxam, sulfentrazone 100 g/ha); 70 in assay [3] (setting [7]); 40 in assay [2] (setting [7]).

For the compound `C#CCN1C(=O)COc2cc(F)c(N3C(=O)C4=C(CCCC4)C3=O)cc21` [flumioxazin], the “Herbicidal effect Ivyleaf morningglory” value in assay [3] (setting [8]) and in assay [2] (setting [8]) was 30 throughout.

These data come from patent publication US9420787B2, “Method for controlling noxious organisms” (SUMITOMO CHEMICAL COMPANY, LIMITED, priority 2012, dated 2016).
